Assays:
[1] = test system: chikungunya virus (CHIKV); test: Chikungunya virus-cell based antiviral assay (inhibition of virus-induced cell death, MTS readout); conditions: for EC50: Chikungunya virus, Vero, read-out: EC50 (50% effective concentration, inhibits CHIKV-induced cell death by 50%); for selectivity index (SI), CC50 Vero/EC50 CHIKV: ratio of CC50 to EC50
in vitro = conditions: African green monkey

Row | SMILES | EC50 [1] | selectivity index (SI), CC50 Vero/EC50 CHIKV [1] | CC50 (in vitro)
1 | CC1CCCCCCC(C)C(=O)OC2C(=CCl)C=C3C2(O)C(O)C2(CO)OC2C2C4OC5(c6ccccc6)OC(C(C)C32O5)C4(O)C(O)(CO)C1 (centres unmarked) [Compound 2, Trigocherriolide E] | 0.7 ± 0.1 µM | 9.4 | 6.6 ± 0.6 µM
2 | CCN(CC)CCCC(C)Nc1ccnc2cc(Cl)ccc12 (centres unmarked) [Chloroquine, chloroquine, reference compound] | 10 ± 5 µM | – | 89 ± 28 µM
3 | C=C(C)C12OC3(c4ccccc4)OC1C1C4OC4(CO)C(O)C4(O)C(O)C(C)=CC4C1(O3)C(C)C2OC(=O)C(C)CCCCCCCC (centres unmarked) [Compound 1, Trigocherrierin A] | 0.6 ± 0.1 µM | 71.7 | 43 ± 16 µM

Reference: PMC6270878, “Trigocherrierin A, a Potent Inhibitor of Chikungunya Virus Replication” (Molecules, 2014)
